From paper PMC3914206

Assays:
Format in all cases: binding
panel of 442 kinases [1] = molecular target: T1, panel of 442 kinases (Homo sapiens, UniProt P29597); settings: compound concentration 10 µM; for % Ctrl, TYK2(JH1domain-catalytic): kinase TYK2(JH1domain-catalytic); for % Ctrl, TYK2(JH2domain-pseudokinase): kinase TYK2(JH2domain-pseudokinase)
T1 construct: purchased KINOMEscan
Source text: (§1) We assessed the selectivity of members of this scaffold using the KINOMEscan methodology across a near comprehensive panel of 442 kinases [[18,27]].

panel of 442 kinases [2] = molecular target: T2, panel of 442 kinases (Homo sapiens, UniProt Q16659); settings: Compound Concentration 10 µM
T2 construct: purchased KINOMEscan
T2 sequence (Q16659 whole entry): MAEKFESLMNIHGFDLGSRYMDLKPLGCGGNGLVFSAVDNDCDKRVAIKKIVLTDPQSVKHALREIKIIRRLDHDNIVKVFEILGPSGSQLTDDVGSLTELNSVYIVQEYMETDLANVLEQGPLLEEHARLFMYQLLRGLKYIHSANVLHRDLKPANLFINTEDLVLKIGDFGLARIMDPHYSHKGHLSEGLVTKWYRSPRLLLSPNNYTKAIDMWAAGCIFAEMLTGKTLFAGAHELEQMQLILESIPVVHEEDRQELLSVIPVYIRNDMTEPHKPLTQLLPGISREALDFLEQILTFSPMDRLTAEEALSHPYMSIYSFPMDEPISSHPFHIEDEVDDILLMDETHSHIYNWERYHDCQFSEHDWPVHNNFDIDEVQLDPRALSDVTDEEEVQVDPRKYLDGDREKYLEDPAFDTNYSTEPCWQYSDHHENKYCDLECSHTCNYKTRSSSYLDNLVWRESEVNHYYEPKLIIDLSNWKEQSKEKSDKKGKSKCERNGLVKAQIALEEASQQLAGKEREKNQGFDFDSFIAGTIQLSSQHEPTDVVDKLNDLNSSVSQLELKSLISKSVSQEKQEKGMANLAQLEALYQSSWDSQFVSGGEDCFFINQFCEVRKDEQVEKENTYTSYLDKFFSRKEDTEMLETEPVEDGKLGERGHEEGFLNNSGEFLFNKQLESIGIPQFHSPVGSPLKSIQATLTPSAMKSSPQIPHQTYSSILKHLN
Source text: as §1

panel of 442 kinases [3] = molecular target: T3, panel of 442 kinases (Homo sapiens, UniProt Q8IW41); settings: Compound Concentration 10 µM
T3 construct: purchased KINOMEscan
T3 sequence (Q8IW41 1-473): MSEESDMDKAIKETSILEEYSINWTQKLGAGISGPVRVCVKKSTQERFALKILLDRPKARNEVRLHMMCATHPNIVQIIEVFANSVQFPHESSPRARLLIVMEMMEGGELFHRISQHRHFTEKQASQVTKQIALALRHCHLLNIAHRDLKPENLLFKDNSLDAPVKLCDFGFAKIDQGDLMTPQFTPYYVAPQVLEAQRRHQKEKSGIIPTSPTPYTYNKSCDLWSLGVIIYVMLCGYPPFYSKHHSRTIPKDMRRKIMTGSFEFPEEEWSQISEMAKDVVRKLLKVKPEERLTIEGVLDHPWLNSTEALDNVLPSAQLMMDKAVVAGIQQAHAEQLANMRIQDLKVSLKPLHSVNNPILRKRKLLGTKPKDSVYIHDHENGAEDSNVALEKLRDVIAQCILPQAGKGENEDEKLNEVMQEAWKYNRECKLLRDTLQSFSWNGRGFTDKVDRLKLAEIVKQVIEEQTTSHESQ
Source text: as §1

T1 sequence (P29597 whole entry): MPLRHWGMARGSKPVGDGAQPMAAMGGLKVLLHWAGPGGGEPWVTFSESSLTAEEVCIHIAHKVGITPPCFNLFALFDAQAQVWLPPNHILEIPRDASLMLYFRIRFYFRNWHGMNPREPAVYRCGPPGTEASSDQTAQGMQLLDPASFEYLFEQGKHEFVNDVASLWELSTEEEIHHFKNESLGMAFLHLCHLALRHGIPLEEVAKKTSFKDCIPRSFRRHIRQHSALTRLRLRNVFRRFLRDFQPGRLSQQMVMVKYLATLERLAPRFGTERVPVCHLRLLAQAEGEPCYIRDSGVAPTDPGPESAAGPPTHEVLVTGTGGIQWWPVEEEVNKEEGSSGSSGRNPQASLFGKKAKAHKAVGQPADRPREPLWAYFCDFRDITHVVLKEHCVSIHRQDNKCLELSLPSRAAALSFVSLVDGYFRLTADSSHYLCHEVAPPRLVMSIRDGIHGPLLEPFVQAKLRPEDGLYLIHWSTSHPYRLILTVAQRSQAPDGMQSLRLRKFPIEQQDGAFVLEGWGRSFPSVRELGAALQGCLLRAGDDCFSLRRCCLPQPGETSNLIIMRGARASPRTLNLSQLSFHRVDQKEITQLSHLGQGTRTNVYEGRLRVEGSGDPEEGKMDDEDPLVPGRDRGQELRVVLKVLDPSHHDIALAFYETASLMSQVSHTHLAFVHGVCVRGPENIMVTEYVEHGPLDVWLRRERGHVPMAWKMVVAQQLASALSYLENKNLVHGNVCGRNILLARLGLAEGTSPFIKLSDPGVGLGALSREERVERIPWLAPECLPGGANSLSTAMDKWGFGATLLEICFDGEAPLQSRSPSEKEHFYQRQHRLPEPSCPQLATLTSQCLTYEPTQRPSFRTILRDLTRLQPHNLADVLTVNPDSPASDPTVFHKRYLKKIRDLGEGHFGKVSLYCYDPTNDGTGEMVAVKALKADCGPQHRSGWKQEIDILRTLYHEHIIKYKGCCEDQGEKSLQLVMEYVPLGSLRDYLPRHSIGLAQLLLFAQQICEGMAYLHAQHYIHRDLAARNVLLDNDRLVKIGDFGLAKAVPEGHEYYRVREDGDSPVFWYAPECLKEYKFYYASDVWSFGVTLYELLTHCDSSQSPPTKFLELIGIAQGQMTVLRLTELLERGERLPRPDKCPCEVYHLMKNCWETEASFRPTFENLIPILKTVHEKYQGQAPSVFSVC

| Compound | % Ctrl, TYK2(JH1domain-catalytic) (panel of 442 kinases [1]) [% Ctrl] | % Ctrl, TYK2(JH2domain-pseudokinase) (panel of 442 kinases [1]) [% Ctrl] | KINOMEscan: ERK3 (panel of 442 kinases [2]) | KINOMEscan: MAPKAPK5 (panel of 442 kinases [3]) |
| --- | --- | --- | --- | --- |
| COc1cc(C(=O)N2CCC(N3CCN(C)CC3)CC2)ccc1Nc1ncc2c(n1)N(C1CCCC1)c1ccccc1C(=O)N2C [Compound 25, 11-cyclopentyl-2-((2-methoxy-4-(4-(4-methylpiperazin-1-yl)piperidine-1-carbonyl)phenyl)amino)-5-methyl-5H-benzo[e]pyrimido[5,4-b][1,4]diazepin-6(11H)-one] | 100 | 100 | 100 | 96 |
| CCOc1cc(C(=O)N2CCC(N3CCN(C)CC3)CC2)ccc1Nc1ncc2c(n1)N(C1CCCC1)c1ccccc1C(=O)N2C [Compound 26] | 81 | 100 | 100 | 100 |
| COc1cc(C(=O)N2CCC(N3CCN(C)CC3)CC2)ccc1Nc1ncc2c(n1)N(C)c1ccccc1C(=O)N2C [15 (LRRK2-IN-1)] | 52 | 100 | 100 | 97 |
